{
  "source": "patent US20230295575A1",
  "about": "“METHODS OF INCREASING MATURATION OF HEART, PANCREATIC BETA-CELLS, AND NEURONS” (Yissum Research Development Company of the Hebrew …, priority 2020, published 2023)",
  "key": {"[1]": {"conditions": "healthy individuals; cited from earlier work"}, "[2]": {"conditions": "obese adults; cited from earlier work"}, "[3]": {"conditions": "3 week-old rats; cited from earlier work"}, "[4]": {"target": "T1, PPARα (Homo sapiens, UniProt Q07869)", "T1 sequence (Q07869 1-468)": "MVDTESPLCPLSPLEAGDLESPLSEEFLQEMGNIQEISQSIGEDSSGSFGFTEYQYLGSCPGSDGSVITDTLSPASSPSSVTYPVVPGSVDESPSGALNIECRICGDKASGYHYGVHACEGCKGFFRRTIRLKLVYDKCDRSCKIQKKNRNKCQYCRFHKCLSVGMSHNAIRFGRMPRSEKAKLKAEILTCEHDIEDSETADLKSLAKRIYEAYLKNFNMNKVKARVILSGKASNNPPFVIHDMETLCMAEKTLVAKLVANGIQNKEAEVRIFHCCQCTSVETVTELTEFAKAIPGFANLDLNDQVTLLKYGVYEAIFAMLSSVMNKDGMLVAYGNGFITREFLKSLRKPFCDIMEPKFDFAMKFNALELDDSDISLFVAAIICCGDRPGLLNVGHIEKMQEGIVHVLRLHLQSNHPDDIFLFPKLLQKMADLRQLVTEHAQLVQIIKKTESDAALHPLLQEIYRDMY", "conditions": "cited from earlier work"}, "[5]": {"tested_on": "pluripotent stem cells derived cardiomyocytes", "test": "Immunofluorescence / cell shape analysis of stem cell-derived cardiomyocytes", "format": "cell-based, human", "conditions": "OA+9CLA+GW9662", "procedure": "Cultured cells were fixed using 4% paraformaldehyde for 15 minutes at room temperature. Cells were then permeabilized in blocking solution (2% bovine serum albumin (BSA) and 0.25% Triton X-100 in PBS) for one hour at room temperature and incubated with primary antibodies (Table 13 below) for an additional hour. Following washes, cells were incubated with secondary antibodies (Table 14 below) for 1 hour at room temperature in blocking solution, washed twice in PBS and counterstained with 1 µg/ml Hoechest 33258 (Sigma Aldrich, USA) for 5 minutes. Imaging was performed on a Zeiss LSM 700 confocal microscope. Staining of actin was carried out simultaneously with secondary antibody incubation step by adding a 1:100 of Rhodamine-Phalloidin solution. Microscopic single cell and mitochondrial shape analysis was carried out using the CellProfiler software. Mitochondrial elongation was scored from 0 to 1, where 0 corresponds to a circle and 1 to a rectangle.\n(§1) Cells were seeded on Matrigel in mTeSR-1 medium and allowed to reach 80-90% confluence. Cardiac differentiation was conducted as previously described (Burridge, P. W. et al. Chemically defined generation of human cardiomyocytes. Nat Methods 11, 855-860, 2014). Briefly, a basal medium named CDM3 was used (RPMI-1640, 500 µg/mL recombinant human serum albumin, 213 µg/mL L-ascorbic acid 2-phosphate and 1% penicillin/streptomycin). […]"}, "[6]": {"tested_on": "stem cell-derived cardiomyocytes", "test": "Seahorse MitoStress analysis of stem cell-derived cardiomyocytes", "format": "cell-based, human", "procedure": "as §1, with “penicillin/streptomycin). At day zero of differentiation, the medium was replaced with CDM3 supplemented with 6 µmol/L CHIR99021 (Stemgent) for two days. At day two of the differentiation the culture-medium was switched to CDM3 medium supplemented with 2 µM Wnt-C59 (Selleckchem), for additional two days. From day four onward, cells were cultured with RPMI supplemented with B27-I (B27 supplement without Insulin; Gibco, USA).” for “penicillin/streptomycin).”\nMitochondrial function was measured using the Seahorse XF Cell Mito Stress Test Kit according to the manufacturer’s instructions (Agilent, Santa Clara, CA). […] The basal oxygen consumption rate (OCR) was measured for 30 minutes and then injected 1 µM oligomycin, a mitochondrial complex V inhibitor that blocks oxidative phosphorylation. […]"}, "[7]": {"tested_on": "adipocytes", "conditions": "short term exposure; cited from earlier work"}, "[8]": {"tested_on": "human muscle cells", "conditions": "cited from earlier work"}, "[9]": {"tested_on": "UN1 iPSC", "test": "Fatty acid supplementation at different steps of 4-step cardiac differentiation", "format": "cell-based, human", "conditions": "preliminary studies", "procedure": "FIGS. 3A-B. Addition of OA+9CLA during differentiation impairs differentiation. (A) Light Microscopy of UN1 iPSC during 4-step cardiac differentiation (methods) supplemented with 100 µM oleic acid and 50 µM 9CLA at different steps. […] (B) Quantification of portion of complete well death (left) and portion of beating wells resulted by supplementation with 100 µM oleic acid and 50 µM 9CLA at different steps of the 4-step cardiac differentiation (n=24; methods).\nas §1, with “penicillin/streptomycin). At day zero of differentiation, the medium was replaced with CDM3 supplemented with 6 µmol/L CHIR99021 (Stemgent) for two days. At day two of the differentiation the culture-medium was switched to CDM3 medium supplemented with 2 µM Wnt-C59 (Selleckchem), for additional two days. From day four onward, cells were cultured with RPMI supplemented with B27-I (B27 supplement without Insulin; Gibco, USA).” for “penicillin/streptomycin).”"}, "[10]": {"tested_on": "human embryonic stem cells", "conditions": "hESC on mouse fibroblast feeder layers; cited from earlier work"}, "[11]": {"conditions": "human subjects; cited from earlier work"}},
  "data": [
    {"compound": "CCCCCC/C=C/C=C\\CCCCCCCC(=O)O", "note": "[9CLA, 9Z,11E-octadeca-9,11-dienoic acid]", "values": [
      {"measurement": "low density lipoproteins (LDL)", "setting": "[1]", "value": "decreasing"},
      {"measurement": "insulin sensitivity and lipid peroxidation", "setting": "[2]", "value": "increasing"},
      {"measurement": "effect of treatment", "setting": "[3]", "value": "did not have a beneficial effect"},
      {"measurement": "activity at PPARα", "setting": "[4]", "value": "agonist"}
    ]},
    {"compound": "O=C(Nc1ccccc1)c1cc([N+](=O)[O-])ccc1Cl", "note": "[GW9662]", "values": [
      {"measurement": "effect of PPARα/γ inhibition on OA+9CLA-induced cell area increase", "setting": "[5]", "value": "reversed"},
      {"measurement": "effect of GW9662 on the effect of postnatal lipids, in all cases", "setting": "[6]; all readouts (respiration, glycolysis, cell area, gene expression), 10 µM GW9662", "value": "reversed"},
      {"measurement": "effect of GW9662 on fatty acid-induced respiration increase and glycolysis decrease", "setting": "[6]; short-term exposure to GW9662 with OA+9CLA", "value": "reversed both effects"}
    ]},
    {"compound": "conjugated linoleic acid [CLA]", "values": [
      {"measurement": "differentiation of mature adipocytes", "setting": "[7]", "value": "delayed the differentiation of mature adipocytes"},
      {"measurement": "myogenic gene expression", "setting": "[8]", "value": "suppressed myogenic gene expression"},
      {"measurement": "outcome of addition during cardiomyocyte differentiation", "setting": "[9]", "value": "immature fibroblast-like cells that did not start beating"},
      {"measurement": "outcome of addition on terminally differentiated beating cardiomyocytes", "setting": "[9]", "value": "mature cardiomyocytes"},
      {"measurement": "decrease of differentiation of stem cell colonies", "setting": "[10]", "value": 20, "unit": "%"},
      {"measurement": "effect on endothelial function", "setting": "[11]", "value": "negative effect"}
    ]}
  ]
}
